We go through 20 compounds from US20230399312A1, “SUBSTITUTED PYRIMIDINES AND METHODS OF USE” (THERAVANCE BIOPHARMA R&D IP, LLC, priority 2020, published 2023).

Assay [1] deals with T1, recombinant human ALK5 (TGF-βR1) protein (Homo sapiens, UniProt P36897).
T1 construct: purchased Life Technologies PR9075A
T1 sequence (P36897 34-503): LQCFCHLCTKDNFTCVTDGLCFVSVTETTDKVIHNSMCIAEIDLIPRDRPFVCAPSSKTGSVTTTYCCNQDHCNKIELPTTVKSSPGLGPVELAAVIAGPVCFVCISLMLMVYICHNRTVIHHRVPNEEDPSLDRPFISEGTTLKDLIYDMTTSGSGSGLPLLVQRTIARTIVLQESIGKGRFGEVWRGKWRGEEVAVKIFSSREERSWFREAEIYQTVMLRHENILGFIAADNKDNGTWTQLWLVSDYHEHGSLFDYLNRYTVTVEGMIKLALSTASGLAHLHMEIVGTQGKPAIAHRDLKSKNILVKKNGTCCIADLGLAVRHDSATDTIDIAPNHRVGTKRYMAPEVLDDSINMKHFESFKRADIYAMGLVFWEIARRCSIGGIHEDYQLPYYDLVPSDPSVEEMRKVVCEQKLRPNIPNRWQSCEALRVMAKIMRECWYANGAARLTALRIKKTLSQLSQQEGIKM
Nature of the assay: Biochemical ALK5 (TGF-βR1) assay to measure pKi (LANCE Ultra ULight kinase assay). The settings on record: apparent pKi, converted from pIC50 by Cheng-Prusoff. A digest of the protocol:
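Cmpd + enzyme, 60 min RT; ATP from 125 μM (5×) stock, 60 min 37 °C; stop 12 mM EDTA/Eu anti-pThr1342 Topo2α Ab (pH 7.0 buffer); TR-FRET 665 nm. DMSO = max, SD-208 = min signal. 4-PL pIC50 → pKi (Cheng-Prusoff).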
On the technique in general: TR-FRET usually uses a lanthanide donor and a delayed reading to cut background.

Assay [2] relates to TGF-β-stimulated SMAD3 phosphorylation in BEAS-2B cells. In words: Cellular ALK5 potency assay, inhibition of TGF-β stimulated pSMAD3 formation in BEAS-2B cells. The format is cell-based. The following applies: Homo sapiens, pSMAD3, TGF-β 10 ng/mL, read-out: BEAS2B pIC50 (converted). An outline of the steps: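 Read-out is AlphaLISA detection of phospho-SMAD3 in lysates of BEAS-2B human lung epithelial cells. Cells are exposed to compound for 1 hour, then to 10 ng/mL TGF-β (final) for 30 minutes. Values are pIC50 from concentration–response curves.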

`Cc1cccc(-c2nccc(Nc3ccnc(Nc4ccc(NS(=O)(=O)CCN)cc4)n3)n2)n1` [Compound 363, 2-amino-N-[4-[[4-[[2-(6-methyl-2-pyridyl)pyrimidin-4-yl]amino]pyrimidin-2-yl]amino]phenyl] ethanesulfonamide]: the Ki in assay [1] is 0.398 to 3.16 nM. Besides, the IC50 in assay [2] is 200 to 1260 nM.
The corresponding values for `Cc1cccc(-c2nccc(Nc3ccnc(Nc4csc(NC(=O)C5CCNC5)c4)n3)n2)n1` (stereo not shown) [Compound 364, N-[4-[[4-[[2-(6-methyl-2-pyridyl)pyrimidin-4-yl]amino]pyrimidin-2-yl]amino]-2-thienyl]pyrrolidine-3-carboxamide] are ≤ 0.0316 nM and ≤ 20 nM.
Turning to `Cc1cccc(-c2nccc(Nc3ccnc(Nc4ccc(N5CCN(C6CCOC6=O)CC5)cc4)n3)n2)n1` (stereo not shown) [Compound 365, 3-[4-[4-[[4-[[2-(6-methyl-2-pyridyl)pyrimidin-4-yl]amino]pyrimidin-2-yl]amino]phenyl]piperazin-1-yl]tetrahydrofuran-2-one], the Ki in assay [1] is 0.0398 to 0.316 nM. Also, in assay [2], the IC50 is ≤ 20 nM.
The matching figures for `Cc1cccc(-c2nccc(Nc3ccnc(Nc4ccc(CN5CCOCC5)cc4)n3)n2)n1` [Compound 366, N4-[2-(6-methyl-2-pyridyl)pyrimidin-4-yl]-N2-[4-(morpholinomethyl)phenyl] pyrimidine-2,4-diamine]: 0.0398 to 0.316 nM and 25.1 to 158 nM.
`CNC(=O)[C@@H]1CN(c2ccc(Nc3nccc(Nc4ccnc(-c5cccc(C)n5)n4)n3)cc2)CCN1` [Compound 367, (2S)-N-methyl-4-[4-[[4-[[2-(6-methyl-2-pyridyl)pyrimidin-4-yl]amino]pyrimidin-2-yl]amino]phenyl]piperazine-2-carboxamide]: in assay [1], the Ki is 0.0398 to 0.316 nM. In assay [2], the IC50 is 25.1 to 158 nM.
`Cc1cccc(-c2nccc(Nc3ccnc(Nc4ccc(N5CCC(C(=O)OCC6CNC6)CC5)cc4)n3)n2)n1` [Compound 368, azetidin-3-ylmethyl 1-[4-[[4-[[2-(6-methyl-2-pyridyl)pyrimidin-4-yl]amino]pyrimidin-2-yl]amino]phenyl]piperidine-4-carboxylate]: in assay [1], the Ki is 0.0398 to 0.316 nM. In addition, the IC50 in assay [2] is 25.1 to 158 nM.
The corresponding values for `COC(=O)C1CN(CCNc2ccc(Nc3nccc(Nc4ccnc(-c5cccc(C)n5)n4)n3)cc2)CCN1` (stereo not shown) [Compound 369, methyl 4-[2-[4-[[4-[[2-(6-methyl-2-pyridyl)pyrimidin-4-yl]amino]pyrimidin-2-yl]amino]anilino]ethyl] piperazine-2-carboxylate] are 0.398 to 3.16 nM and 25.1 to 158 nM.
The matching figures for `Cc1cccc(-c2nccc(Nc3ccnc(Nc4ccc(CN5CCN(C(C)C)CC5)cc4)n3)n2)n1` [Compound 370, N2-[4-[(4-isopropylpiperazin-1-yl)methyl]phenyl]-N4-[2-(6-methyl-2-pyridyl)pyrimidin-4-yl]pyrimidine-2,4-diamine]: 0.0398 to 0.316 nM and 25.1 to 158 nM.
The matching figures for `Cc1cccc(-c2nccc(Nc3ccnc(Nc4ccc(NS(=O)(=O)N(C)C)cc4)n3)n2)n1` [Compound 371, 4-[[2-[4-(dimethylsulfamoylamino)anilino]pyrimidin-4-yl]amino]-2-(6-methyl-2-pyridyl)pyrimidine]: 0.398 to 3.16 nM and 25.1 to 158 nM.
As to `Cc1cccc(-c2nccc(Nc3ccnc(Nc4ccc(CN5CC6(CCOC6)C5)cc4)n3)n2)n1` [Compound 372, N4-[2-(6-methyl-2-pyridyl)pyrimidin-4-yl]-N2-[4-(6-oxa-2-azaspiro[3.4]octan-2-ylmethyl)phenyl]pyrimidine-2,4-diamine], the Ki in assay [1] is 0.0398 to 0.316 nM. In addition, in assay [2], the IC50 is 25.1 to 158 nM.
The corresponding values for `Cc1cccc(-c2nccc(Nc3ccnc(Nc4cnn(C5CCCNC5)c4)n3)n2)n1` (stereo not shown) [Compound 373, N4-[2-(6-methyl-2-pyridyl)pyrimidin-4-yl]-N2-[1-(3-piperidyl)pyrazol-4-yl]pyrimidine-2,4-diamine] are ≤ 0.0316 nM and 200 to 1260 nM.
The matching figures for `Cc1cccc(-c2nccc(Nc3ccnc(Nc4ccc(C5CCCNC5)cc4)n3)n2)n1` (stereo not shown) [Compound 374, N4-[2-(6-methyl-2-pyridyl)pyrimidin-4-yl]-N2-[4-(3-piperidyl)phenyl]pyrimidine-2,4-diamine]: 0.0398 to 0.316 nM and 25.1 to 158 nM.
The corresponding values for `Cc1cccc(-c2nccc(Nc3ccnc(Nc4ccc(CN5C[C@@H]6C[C@H]5CN6)cc4)n3)n2)n1` [Compound 375, N2-[4-[[(1S,4S)-2,5-diazabicyclo[2.2.1]heptan-2-yl]methyl]phenyl]-N4-[2-(6-methyl-2-pyridyl)pyrimidin-4-yl]pyrimidine-2,4-diamine] are 0.0398 to 0.316 nM and 25.1 to 158 nM.
Consider `Cc1cccc(-c2nccc(Nc3ccnc(Nc4ccc(CN5C[C@H](C)NC[C@H]5C)cc4)n3)n2)n1` [Compound 376, N2-[4-[[(2R,5S)-2,5-dimethylpiperazin-1-yl]methyl]phenyl]-N4-[2-(6-methyl-2-pyridyl)pyrimidin-4-yl]pyrimidine-2,4-diamine], for which the Ki in assay [1] is 0.0398 to 0.316 nM. For the same compound, in assay [2], the IC50 is 25.1 to 158 nM.
With `Cc1cccc(-c2nccc(Nc3ccnc(Nc4ccc(CN5CCCNCC5)cc4)n3)n2)n1` [Compound 377, N2-[4-(1,4-diazepan-1-ylmethyl)phenyl]-N4-[2-(6-methyl-2-pyridyl)pyrimidin-4-yl]pyrimidine-2,4-diamine], in assay [1], the Ki is 0.0398 to 0.316 nM. The IC50 in assay [2] is 25.1 to 158 nM.
The corresponding values for `Cc1cccc(-c2nccc(Nc3ccnc(Nc4csc(C(=O)NCC5(CO)CNC5)c4)n3)n2)n1` [Compound 378, N-[[3-(hydroxymethyl)azetidin-3-yl]methyl]-4-[[4-[[2-(6-methyl-2-pyridyl)pyrimidin-4-yl]amino]pyrimidin-2-yl]amino]thiophene-2-carboxamide] are ≤ 0.0316 nM and 25.1 to 158 nM.
The corresponding values for `CNC1CCN(c2ccc(Nc3nccc(Nc4ccnc(-c5cc(O)ccc5C)n4)n3)cc2)CC1` [Compound 379, 4-methyl-3-[4-[[2-[4-[4-(methylamino)-1-piperidyl]anilino]pyrimidin-4-yl]amino]pyrimidin-2-yl]phenol] are 0.398 to 3.16 nM and 200 to 1260 nM.
On to `Cc1cccc(-c2nccc(Nc3ccnc(Nc4ccc(N5CCN(CC6CNC6)CC5)cc4)n3)n2)n1` [Compound 380, N2-[4-[4-(azetidin-3-ylmethyl)piperazin-1-yl]phenyl]-N4-[2-(6-methyl-2-pyridyl)pyrimidin-4-yl]pyrimidine-2,4-diamine], for which the Ki in assay [1] is 0.0398 to 0.316 nM. The IC50 in assay [2] was 25.1 to 158 nM.
Consider `Cc1cccc(-c2nccc(Nc3ccnc(Nc4ccc(Cl)c(CN5C[C@@H](C)N[C@@H](C)C5)c4)n3)n2)n1` [Compound 381, N2-[4-chloro-3-[[rac-(3R,5S)-3,5-dimethylpiperazin-1-yl]methyl]phenyl]-N4-[2-(6-methyl-2-pyridyl)pyrimidin-4-yl]pyrimidine-2,4-diamine], for which, in assay [1], the Ki was 0.0398 to 0.316 nM. Further, the IC50 in assay [2] was 25.1 to 158 nM.
The corresponding values for `Cc1cccc(-c2nccc(Nc3ccnc(Nc4ccc(CN5CCCC(C(=O)OC6CCNCC6)C5)cc4)n3)n2)n1` (stereo not shown) [Compound 383, 4-piperidyl 1-[[4-[[4-[[2-(6-methyl-2-pyridyl)pyrimidin-4-yl]amino]pyrimidin-2-yl]amino]phenyl]methyl] piperidine-3-carboxylate] are 0.0398 to 0.316 nM and 25.1 to 158 nM.
